The text below walks through data of US10703741B2, “Covalent inhibitors of PAD4” (Padlock Therapeutics, Inc., priority 2016, dated 2020).

For assay [1], the target named is hPAD4 enzyme (Homo sapiens (Human), UniProt Q9UM07). The assay is described as follows: PAD4 RapidFire Mass Spectrometry (RFMS) activity assay, hPAD4. In kind it is biochemical.
For assay [2], the target named is mPAD4 (Mus musculus (Mouse), UniProt Q9Z183). The assay is described as follows: PAD4 RapidFire Mass Spectrometry (RFMS) activity assay, mPAD4. In kind it is biochemical.
mPAD4, sequence (Q9Z183 whole entry): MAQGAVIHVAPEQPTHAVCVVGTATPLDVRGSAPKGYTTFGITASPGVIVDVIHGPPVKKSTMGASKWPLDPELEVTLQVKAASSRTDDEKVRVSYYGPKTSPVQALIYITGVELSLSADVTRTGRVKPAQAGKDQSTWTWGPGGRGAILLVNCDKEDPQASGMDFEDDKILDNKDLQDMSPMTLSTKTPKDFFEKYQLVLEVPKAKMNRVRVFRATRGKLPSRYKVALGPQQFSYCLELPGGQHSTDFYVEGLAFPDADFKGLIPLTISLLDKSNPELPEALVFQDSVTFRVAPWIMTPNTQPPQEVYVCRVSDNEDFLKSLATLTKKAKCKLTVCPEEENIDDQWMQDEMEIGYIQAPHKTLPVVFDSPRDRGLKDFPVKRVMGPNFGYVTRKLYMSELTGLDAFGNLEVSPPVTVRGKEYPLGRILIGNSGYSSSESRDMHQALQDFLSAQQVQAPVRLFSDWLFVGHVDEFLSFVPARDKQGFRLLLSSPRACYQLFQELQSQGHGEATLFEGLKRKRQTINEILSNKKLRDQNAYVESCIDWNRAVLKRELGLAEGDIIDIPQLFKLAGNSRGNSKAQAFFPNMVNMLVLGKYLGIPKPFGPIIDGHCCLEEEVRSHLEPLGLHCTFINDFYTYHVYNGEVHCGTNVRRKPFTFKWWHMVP
[3] abbreviates: 100 nM hPAD4, 50 μM substrate peptide, 1 mM CaCl2, 65 mins at 37° C., read-out: hPAD4 RFMS IC50.
Setting [4] is: pIC50=−log(IC50), read-out: hPAD4 RFMS pIC50 (converted).
[5] abbreviates: pIC50=−log(IC50), read-out: mPAD4 RFMS pIC50 (converted).

Where two headings read alike, the source gives them in different places.

hPAD4 enzyme, sequence (Q9UM07 whole entry): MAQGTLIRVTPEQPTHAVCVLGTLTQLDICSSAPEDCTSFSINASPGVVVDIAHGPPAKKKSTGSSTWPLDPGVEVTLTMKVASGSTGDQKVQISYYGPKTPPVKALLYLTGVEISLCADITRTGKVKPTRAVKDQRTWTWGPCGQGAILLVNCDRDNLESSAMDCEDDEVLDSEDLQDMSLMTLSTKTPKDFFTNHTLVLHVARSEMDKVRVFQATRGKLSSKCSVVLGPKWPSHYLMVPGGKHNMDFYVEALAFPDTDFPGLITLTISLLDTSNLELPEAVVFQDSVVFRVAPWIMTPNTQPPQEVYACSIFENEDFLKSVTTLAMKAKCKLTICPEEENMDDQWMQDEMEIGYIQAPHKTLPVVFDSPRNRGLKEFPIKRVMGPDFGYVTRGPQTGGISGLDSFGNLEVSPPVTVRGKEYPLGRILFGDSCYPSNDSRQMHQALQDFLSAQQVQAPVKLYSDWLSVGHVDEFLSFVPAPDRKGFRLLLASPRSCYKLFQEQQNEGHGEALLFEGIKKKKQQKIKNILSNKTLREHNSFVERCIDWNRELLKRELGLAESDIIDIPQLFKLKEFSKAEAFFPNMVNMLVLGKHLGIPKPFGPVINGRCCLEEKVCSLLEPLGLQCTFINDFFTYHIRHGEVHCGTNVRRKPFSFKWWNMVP

On to `C/C=C/C(=O)N[C@@H]1CNC[C@H]1NC(=O)c1ccc2c(c1)nc(-c1cc3cccnc3n1CC1CC1)n2C` [Compound I-6], for which the IC50 in assay [1] (setting [3]) was above 10 µM; in assay [1] (setting [4]), 100 to 100000 µM.
In the same order, the values of `C=CC(=O)N(C)[C@@H]1C[C@@H]2CN(C(=O)c3cc(OC)c4c(c3)nc(-c3cc5cccnc5n3CC3CC3)n4C)[C@H]1[C@@H]2N` (single isomer, unassigned) [Compound I-16] are above 10 µM and 100 to 100000 µM.
`CN(C)C/C=C/C(=O)N[C@H]1CCN(C(=O)c2ccc3c(c2)nc(-c2cc4cccnc4n2CC2CC2)n3C)C[C@H]1N` (racemic) [Compound I-3, Cis-rac-(2E)-N-[(3R,4S)-3-amino-1-{2-[1-(cyclopropylmethyl)-1H-pyrrolo[2,3-b]pyridin-2-yl]-1-methyl-1H-1,3-benzodiazole-5-carbonyl}piperidin-4-yl]-4-(dimethylamino)but-2-enamide]: the IC50 is above 10 µM in assay [1] (setting [3]), 100 to 100000 µM in assay [1] (setting [4]), 10 to 100 µM in assay [2] (setting [5]) and above 10 µM in assay [2] (read-out: mPAD4 RFMS IC50).
With `CN(C)C/C=C/C(=O)NCCN(CCc1cnc[nH]1)C(=O)c1ccc2c(c1)nc(-c1cc3cccnc3n1CC1CC1)n2C` [Compound I-7, (2E)-N-[2-(1-{2-[1-(Cyclopropylmethyl)-1H-pyrrolo[2,3-b]pyridin-2-yl]-1-methyl-1H-1,3-benzodiazol-5-yl}-N-[2-(1H-imidazol-5-yl)ethyl]formamido)ethyl]-4-(dimethylamino)but-2-enamide], the results for the IC50 in assay [1] (setting [3]) and in assay [1] (setting [4]) were above 10 µM and 100 to 100000 µM, respectively.
As for `CN(C)C/C=C/C(=O)N[C@@H]1C[C@H](N)CN(C(=O)c2ccc3c(c2)nc(-c2cc4cccnc4n2CC2CC2)n3C)C1` (racemic) [Compound I-10, Cis-rac-(2E)-N-[(3R,5S)-5-amino-1-{2-[1-(cyclopropylmethyl)-1H-pyrrolo[2,3-b]pyridin-2-yl]-1-methyl-1H-1,3-benzodiazole-5-carbonyl}piperidin-3-yl]-4-(dimethylamino)but-2-enamide], the IC50 in assay [1] (setting [3]) is above 10 µM; in assay [1] (setting [4]) it was 10 to 100 µM; in assay [2] (setting [5]) it was 10 to 100 µM; in assay [2] (read-out: mPAD4 RFMS IC50), above 10 µM.
Take `C=CC(=O)O[C@@H]1CNC[C@@H]1NC(=O)c1ccc2c(c1)nc(-c1cc3cccnc3n1CC1CC1)n2C` (racemic) [Compound I-11, Rac-(3R,4S)-4-{2-[1-(cyclopropylmethyl)-1H-pyrrolo[2,3-b]pyridin-2-yl]-1-methyl-1H-1,3-benzodiazole-5-amido}pyrrolidin-3-yl prop-2-enoate]: the IC50 is above 10 µM in assay [1] (setting [3]) and 10 to 100 µM in assay [1] (setting [4]).
The corresponding values for `C=CC(=O)N[C@@H]1CCCN(C(=O)c2ccc3c(c2)nc(-c2cc4cccnc4n2CC2CC2)n3C)C1` [Compound I-13, N-[(3R)-1-{2-[1-(cyclopropylmethyl)-1H-pyrrolo[2,3-b]pyridin-2-yl]-1-methyl-1H-1,3-benzodiazole-5-carbonyl}piperidin-3-yl]prop-2-enamide] are above 10 µM and 100 to 100000 µM.
The corresponding values for `CN(C)C/C=C/C(=O)N[C@@H]1CCCN(C(=O)c2ccc3c(c2)nc(-c2cc4cccnc4n2CC2CC2)n3C)C1` [Compound I-12, (2E)-N-[(3R)-1-{2-[1-(cyclopropylmethyl)-1H-pyrrolo[2,3-b]pyridin-2-yl]-1-methyl-1H-1,3-benzodiazole-5-carbonyl}piperidin-3-yl]-4-(dimethylamino)but-2-enamide] are above 10 µM and 10 to 100 µM.
In the same order, the values of `C=CC(=O)N(C)[C@H]1C[C@@H]2CN(C(=O)c3cc(OC)c4c(c3)nc(-c3cc5cccnc5n3CC3CC3)n4C)[C@H]1[C@@H]2N` (single isomer, unassigned) [Compound I-17] are above 10 µM and 100 to 100000 µM.
